Molecular target: T1, WT-CFTR (Homo sapiens, UniProt P13569)
T1 construct: host or cells: CFBE41o-
Test: Anti-CFTR immunoblotting (C-band) in CFBE41o- cells expressing WT-CFTR
Assay type: cell-based
Conditions: 24 h
Description: Cystic fibrosis bronchial epithelial (CFBE41o^−) cells stably expressing the human WT CFTR or F508del-CFTR mutant [generated in ([26])] were a gift from J. P. Clancy (University of Alabama, Birmingham) and cultured on fibronectin-coated plates (FNC coating mix; Enzo) in minimum essential medium with Earl’s salt (Thermo Fisher Scientific) containing 10% of heat-inactivated fetal bovine serum (FBS; Gibco), penicillin (100 U/ml), streptomycin ([…]) (Thermo Fisher Scientific), and puromycin (2 μg/ml; Sigma-Aldrich). […]
All cells were washed with ice-cold PBS and then lysed for 1 hour on ice with radioimmunoprecipitation assay (RIPA) buffer (Sigma-Aldrich, #R0278) containing 100 mM Na-fluoride, 4 mM Na-orthovanadate, 1 mM phenylmethylsulfonyl fluoride, 1 mM dithiothreitol, and benzonase (100 U/ml; Sigma-Aldrich). […] Samples were mixed with LDS sample buffer (Invitrogen), resolved by SDS-PAGE on 4 to 12% Novex bis-tris precast gels (Thermo Fisher Scientific), and analyzed by Western blotting using a wet transfer method (GenScript) and polyvinylidene difluoride membranes (Life Technologies). […] Membranes were treated with Western Lightning enhanced chemiluminescence substrate (PerkinElmer), and the chemiluminescence signal was recorded and quantified using a chemiluminescence reader and the corresponding software (Fusion FX 7, Evolution Edge, Vilber). […]

T1 sequence (P13569 whole entry): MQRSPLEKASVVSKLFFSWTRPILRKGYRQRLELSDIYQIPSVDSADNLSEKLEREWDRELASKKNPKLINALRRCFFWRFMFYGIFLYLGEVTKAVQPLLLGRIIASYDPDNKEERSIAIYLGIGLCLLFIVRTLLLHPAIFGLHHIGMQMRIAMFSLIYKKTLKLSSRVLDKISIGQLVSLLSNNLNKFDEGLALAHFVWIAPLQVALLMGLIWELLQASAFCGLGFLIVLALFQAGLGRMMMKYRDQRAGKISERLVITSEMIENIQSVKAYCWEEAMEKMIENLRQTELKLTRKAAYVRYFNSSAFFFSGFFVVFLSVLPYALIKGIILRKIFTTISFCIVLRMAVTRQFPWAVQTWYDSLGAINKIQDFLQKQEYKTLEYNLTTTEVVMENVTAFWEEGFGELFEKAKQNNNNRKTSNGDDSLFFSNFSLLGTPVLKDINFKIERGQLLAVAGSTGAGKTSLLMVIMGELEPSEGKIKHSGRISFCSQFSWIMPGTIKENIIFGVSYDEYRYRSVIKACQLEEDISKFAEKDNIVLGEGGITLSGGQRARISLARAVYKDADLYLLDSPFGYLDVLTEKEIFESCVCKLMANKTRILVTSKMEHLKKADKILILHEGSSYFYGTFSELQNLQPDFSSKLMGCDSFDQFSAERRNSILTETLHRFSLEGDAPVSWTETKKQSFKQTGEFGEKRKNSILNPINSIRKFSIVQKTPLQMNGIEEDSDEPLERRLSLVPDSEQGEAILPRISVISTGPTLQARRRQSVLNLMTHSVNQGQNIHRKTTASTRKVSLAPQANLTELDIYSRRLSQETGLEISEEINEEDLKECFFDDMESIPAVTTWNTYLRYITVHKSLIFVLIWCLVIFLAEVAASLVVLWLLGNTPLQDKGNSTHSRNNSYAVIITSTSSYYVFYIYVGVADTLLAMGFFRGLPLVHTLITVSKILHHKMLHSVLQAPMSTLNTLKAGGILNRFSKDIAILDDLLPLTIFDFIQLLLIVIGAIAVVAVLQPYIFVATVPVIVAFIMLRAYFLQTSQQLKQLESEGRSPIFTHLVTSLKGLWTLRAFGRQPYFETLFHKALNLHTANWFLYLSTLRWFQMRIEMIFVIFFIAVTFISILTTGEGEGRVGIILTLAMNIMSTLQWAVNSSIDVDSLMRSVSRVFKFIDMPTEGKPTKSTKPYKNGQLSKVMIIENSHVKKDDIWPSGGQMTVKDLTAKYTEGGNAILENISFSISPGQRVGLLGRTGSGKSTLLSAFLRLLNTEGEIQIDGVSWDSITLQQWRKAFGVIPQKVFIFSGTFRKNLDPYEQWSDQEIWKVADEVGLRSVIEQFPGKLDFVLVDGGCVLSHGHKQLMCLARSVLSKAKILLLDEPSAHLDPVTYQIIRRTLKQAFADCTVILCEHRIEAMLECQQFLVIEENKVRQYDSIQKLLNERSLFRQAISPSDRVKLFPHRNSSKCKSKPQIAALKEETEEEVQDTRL

increase in WT-CFTR C-band: ~ 2 fold
SMILES: COc1cc(CCNC(=O)C2CC(=O)N(C)C(CC(C)C)C(=O)N3CCCCC3C(=O)NC(Cc3ccccc3)COc3ccc4ncc(F)cc4c3C(=O)N2)on1 (stereo not shown) [IDOR-3]

From paper PMC11801377, “A uniquely efficacious type of CFTR corrector with complementary mode of action” (Science Advances, 2024)
